# According to patent publication US20080170990A1, “Methods for Myocardial Imaging in Patients Having a History of Pulmonary Disease” (CV THERAPEUTICS, INC., priority 2006, published 2008):
# Read-outs that look alike come from different tables or passages of the source.
# Tests used:
# Format in all cases: in vivo, human
# [1] = Phase 1 pharmacokinetics after single IV bolus, three-compartment model (Example 3); conditions: for Vd: human, plasma, intravenous, read-out: Vc (central volume of distribution)
# Experimental: Regadenoson was administered as an IV bolus (20 seconds) in ascending doses of […], 10, 20 and 30 μg/kg.
# Plasma samples were drawn during supine phase (Days 1 and 2) at 0, 1, 2, 3, 4, 5, 7, 10, 15, 20, 30, 45 minutes after dosing and at 1, 1.5, 2, 4, 6, 8, 12 and 24 hours after dosing. Urine was collected for 24 hours for Regadenoson excretion.
# A three-compartment open model was fit to the data using observed Tmax (1-4 minutes) as the duration of a zero-order infusion. Reliable parameter estimates were obtained for dose of 1-30 μg/kg. Parameters are summarized in the following (Table 2): […]
# [2] = test system: subjects undergoing stress/rest MPI; test: Stress/rest SPECT myocardial perfusion imaging, adenosine vs Regadenoson (Example 6); conditions: 4D MSPECT; p=n.s.
# Experimental: To determine the ability of Regadenoson to produce coronary hyperemia and accurately detect CAD, 35 subjects (26 men, 9 women; 67±10 years) underwent both A and Regadenoson stress/rest MPI, with 10.0±9.1 days between studies. […] Regadenoson [400 mcg (n=18), 500 mcg (n=17)] was administered as an IV bolus immediately followed by a saline flush, and then a Tc-99m radiopharmaceutical [sestamibi (n=34), tetrofosmin (n=1)]. SPECT images were uniformly processed, intermixed with control studies (normal and fixed-only defects), and interpreted by three observers in a blinded fashion using a 17-segment model. Quantitative analysis was also performed using 4D MSPECT. In addition to three separate readings, a consensus interpretation was performed and then a direct, same-screen comparison of A and REGADENASON images undertaken to determine relative differences, using 5 regions per study.
# [3] = test system: subjects undergoing pharmacologic stress MPI; test: Adverse effects and hemodynamics in pharmacologic stress myocardial perfusion imaging protocol (Example 7)
# Source text: 36 subjects (27 men, 9 women; 67±10 years) were studied with two doses of Regadenoson [400 mcg (n=18), 500 mcg (n=18)], administered as an IV bolus, as part of a pharmacologic stress myocardial perfusion imaging protocol.
# [4] = test system: AMP-sensitive subjects with mild or moderate asthma; test: Double-blind placebo-controlled cross-over study of pulmonary function in AMP-sensitive asthma (Examples 9, 11)
# Experimental: The primary objective was to compare the incidence of bronchoconstrictive reactions, defined as reduction from baseline in FEV1 of >15% within 2 hours following an intravenous (iv) bolus of 400 micrograms of Regadenoson or matching placebo.
# Men or women ≧18 years of age with a diagnosis of mild or moderate asthma as documented by clinical history and pulmonary function test were considered for inclusion. The target was to enrolled 48 evaluable subjects: 24 mild and 24 moderate asthma subjects. […] Patients were not permitted short-acting bronchodilators for >6 hours and long-acting bronchodilators and methylxanthines for >24 hours prior to AMP, Regadenoson, or placebo.
# AMP (adenosine 5′-monophosphate sodium salt) was used as an indirect bronchoconstrictor stimulus to select a group of susceptible subjects with adenosine-mediated bronchial hyperreactivity. A standard clinical protocol utilized by the investigative site for the inhalation of AMP for the purpose of provoking a bronchoconstrictor response in the airways was adopted for screening of all subjects. On arrival in the unit, subjects were required to rest for 15 minutes before assessment of lung function at baseline, measured as the best of 3 technically acceptable recordings of FEV1 taken at 1-minute intervals. Subject inhaled a series of five breaths of saline as control, followed by a breath of each increasing concentration of AMP at 3-minute intervals. Two measurements of FEV1 were to be made 90 and 150 seconds after each saline inhalation. The highest FEV1 value was to be recorded. Unless a fall in FEV1 of >10% from the baseline value was observed, subjects then inhaled increasing doubling concentrations of AMP (starting at 0.39 mg/mL) until a ≧20% decrease of FEV1 from the post-saline value was recorded. FEV1 was to be recorded at 90 and 150 seconds after each concentration was administered.
# Subjects received 400 μg Regadenoson or placebo administered as an intravenous (iv) bolus in a double-blind cross-over design. Repeated measurements of FEV1 as an assessment of bronchoconstriction were performed before and for up to 2 hours after study drug administration.
# Two similar randomized, double-blind, placebo (PLC)-controlled crossover trials were conducted, one in asthmatics with a positive adenosine monophosphate (AMP) challenge (a validated marker of airway inflammation) and one in patients with moderate or several chronic obstructive pulmonary disease (COPD). In both studies, short-acting bronchodilators were held prior to and for the 120 minute time frame study drug treatment during which spirometry was repeatedly assessed.
# [5] = 400 or 500 mcg IV bolus, 36 subjects
smiles,measurement,setting,value
"CNC(=O)c1cnn(-c2nc(N)c3ncn([C@@H]4O[C@H](CO)[C@@H](O)[C@H]4O)c3n2)c1 [Regadenoson, (1-{9-[(4S,2R,3R,5R)-3,4-dihydroxy-5-(hydroxymethyl)oxolan-2-yl]-6-aminopurin-2-yl}pyrazol-4-yl)-N-methylcarboxamide]",K21 (rate constant for transfer from first peripheral to central compartment),"[1]; Total (all doses), N=22, mean",0.258 min⁻¹
same,K31 (rate constant for transfer from second peripheral to central compartment),"[1]; Total (all doses), N=22, mean",0.0143 min⁻¹
same,Vss (volume of distribution at steady state),"[1]; Total (all doses), N=22, mean",75.5 L
same,K21 (rate constant for transfer from first peripheral to central compartment),"[1]; dose 1 μg/kg, N=3, mean",0.246 min⁻¹
same,K31 (rate constant for transfer from second peripheral to central compartment),"[1]; dose 1 μg/kg, N=3, mean",0.01808 min⁻¹
same,K21 (rate constant for transfer from first peripheral to central compartment),"[1]; dose 3 μg/kg, N=4, mean",0.203 min⁻¹
same,K31 (rate constant for transfer from second peripheral to central compartment),"[1]; dose 3 μg/kg, N=4, mean",0.0152 min⁻¹
same,α Half-life,"[1]; dose 3 μg/kg, N=4, mean",3.11 min
same,K21 (rate constant for transfer from first peripheral to central compartment),"[1]; dose 10 μg/kg, N=4, mean",0.187 min⁻¹
same,K31 (rate constant for transfer from second peripheral to central compartment),"[1]; dose 10 μg/kg, N=4, mean",0.0108 min⁻¹
same,K21 (rate constant for transfer from first peripheral to central compartment),"[1]; dose 20 μg/kg, N=8, mean",0.387 min⁻¹
same,K31 (rate constant for transfer from second peripheral to central compartment),"[1]; dose 20 μg/kg, N=8, mean",0.0141 min⁻¹
same,CL (clearance),"[1]; dose 20 μg/kg, N=8, mean (SD)",743 (123) mL/min
same,K21 (rate constant for transfer from first peripheral to central compartment),"[1]; dose 30 μg/kg, N=3, mean",0.0948 min⁻¹
same,K31 (rate constant for transfer from second peripheral to central compartment),"[1]; dose 30 μg/kg, N=3, mean",0.0148 min⁻¹
same,Vss (volume of distribution at steady state),"[1]; dose 30 μg/kg, N=3, mean",89.6 L
same,λ Half-life,"[1]; dose 30 μg/kg, N=3, mean",99.4 min
same,Vd,"[1]; 1 ug/kg, N=3, mean (SD)",9.84 L
same,Vd,"[1]; 3 ug/kg, N=4, mean (SD)",13.7 L
same,Vd,"[1]; 10 ug/kg, N=4, mean (SD)",17.9 L
same,Vd,"[1]; 20 ug/kg, N=8, mean",12.5 L
same,Vd,"[1]; 30 ug/kg, N=3, mean",15.7 L
same,Vd,"[1]; Total (all doses), N=22, mean",13.8 L
same,"summed score following stress, quantitative analysis",[2],133.6±1.6
same,incidence of dizziness,[3]; 400-mcg group,11%
same,incidence of dyspnea,[3]; 400-mcg group,17%
same,incidence of flushing,[3]; 400-mcg group,17%
same,mean change in HR response,[3]; 400 mcg dose,34.8%
same,patients with adverse effects (AE),[3]; [5],72%
same,"patients with adverse effects (AE), number",[3]; [5],26 pts
same,incidence of dizziness,[3]; 500-mcg group,28%
same,incidence of dyspnea,[3]; 500-mcg group,44%
same,incidence of flushing,[3]; 500-mcg group,44%
same,mean change in HR response,[3]; 500 mcg dose,44.2%
same,incidence of abdominal pain,[3]; both doses,11%
same,incidence of chest discomfort,[3]; both doses,33%
same,incidence of headache,[3]; both doses,25%
same,lowest systolic BP (did not fall below),[3]; either dose,≥ 90 mmHg
same,serious AE,"[3]; exacerbation of a migraine headache, required hospitalization",One serious AE occurred
same,AEs resolved within 15 min without treatment,[3]; in vivo,91%
same,AEs that were mild to moderate,[3]; in vivo,96%
same,AV block and arrhythmias,[3]; in vivo,No 2nd or 3rd degree AV block was noted and there were no serious arrhythmias
same,patients developing ST abnormalities,[3]; in vivo,7 pts
same,patients developing T wave abnormalities,[3]; in vivo,5 pts
same,"time of peak hemodynamic effect, diastolic BP",[3]; in vivo,8 min
same,"time of peak hemodynamic effect, heart rate",[3]; in vivo,≤ 2 min
same,"time of peak hemodynamic effect, systolic BP",[3]; in vivo,4 min
same,"Diastolic BP, Absolute Change (peak)","[3]; mean ±S.D., 400 and 500 mcg",−5.4 ± 7.2 mmHg
same,"Diastolic BP, Relative Change (peak)","[3]; mean ±S.D., 400 and 500 mcg",−7.9% ± 10.5%
same,"Heart Rate, Absolute Change (peak)","[3]; mean ±S.D., 400 and 500 mcg",+21.9 ± 10.4 beats per min
same,"Heart Rate, Relative Change (peak)","[3]; mean ±S.D., 400 and 500 mcg",+36.7% + 21.0%
same,"Systolic BP, Absolute Change (peak)","[3]; mean ±S.D., 400 and 500 mcg",−5.9 ± 10.7 mmHg
same,"Systolic BP, Relative Change (peak)","[3]; mean ±S.D., 400 and 500 mcg",−4.1% ± 7.6%
same,BP deviation from baseline,[3]; thirty min after Regadenoson,< 2%
same,HR above baseline,[3]; thirty min after Regadenoson,8.6%
same,incidence of chest discomfort,[4]; 400 μg iv bolus,21%
same,incidence of dizziness,[4]; 400 μg iv bolus,53%
same,incidence of dyspnea,[4]; 400 μg iv bolus,34%
same,incidence of flushing,[4]; 400 μg iv bolus,32%
same,incidence of headache,[4]; 400 μg iv bolus,45%
same,incidence of nausea,[4]; 400 μg iv bolus,19%
same,incidence of paraesthesia,[4]; 400 μg iv bolus,19%
same,incidence of tachycardia,[4]; 400 μg iv bolus,66%
same,time for HR to return to within 5 bpm of baseline,[4]; 400 μg iv bolus,≤ 60 min
same,maximum increase in HR,"[4]; 400 μg iv bolus, compared with placebo",+10.4 bpm
same,incidence of adverse events,"[4]; 400 μg iv bolus, placebo 8%",98%
same,incidence of dyspnea following REG,[4]; asthma study,34%
same,Number of patients with FEV1 decline by >20% over 120 min,[4]; asthma study N=48,"1 REG, 0 PLC"
same,Number of patients with FEV1 decline by >30% over 120 min,[4]; asthma study N=48,"1 REG, 0 PLC"
same,Number of patients with use of acute oxygen or short-acting bronchodilators,[4]; asthma study N=48,"0 REG, 0 PLC"
same,"mean FEV1, all post-bolus time points combined","[4]; asthma study N=48, p = 0.17 vs PLC",3.33 (0.9)L REG
same,Number of patients with FEV1 decline by >15% over 120 min,"[4]; asthma study N=48, p = 0.99","2 REG, 2 PLC"
same,subjects with bronchoconstriction (FEV1 reduction >15% within 2 hours),"[4]; mild asthma (n=24), 400 μg iv bolus",None
same,number of subjects having bronchoconstriction (FEV1 reduction >15% within 2 hours),"[4]; moderate asthma (n=24), 400 μg iv bolus",2
